# Experimental data reported in the C3SDB collision cross section collection.
# Details: instrument: TW, calibrated with polyalanine and drug standards
Structure (SMILES),collision cross section (N2) ([M+H]+) [Å²],collision cross section (N2) ([M+H-H2O]+) [Å²]
COC(=O)[C@H](Cc1ccccc1)NC(=O)/C(=C1\OC(=O)C(c2ccccc2)=C1O)c1ccccc1 [RHIZOCARPIC ACID],212.8,–
CO[C@H]1/C=C/O[C@@]2(C)Oc3c(C)c(O)c4c(c3C2=O)C(=O)/C(=C/NN2CCN(C)CC2)C(=C4O)NC(=O)/C(C)=C\C=C\[C@H](C)[C@H](O)[C@@H](C)[C@@H](O)[C@@H](C)[C@H](OC(C)=O)[C@@H]1C [RIFAMPIN],280.3,–
COc1ccc(-c2c(O)c3c(OC)c4c(cc3oc2=O)OC(C)(C)C=C4)cc1 [ROBUSTIC ACID],190.3,–
CC[C@H]1OC(=O)[C@H](C)[C@@H](O[C@H]2C[C@@](C)(OC)[C@@H](O)[C@H](C)O2)[C@H](C)[C@@H](O[C@@H]2O[C@H](C)C[C@H](N(C)C)[C@H]2O)[C@](C)(O)C[C@@H](C)/C(=N\OCOCCOC)[C@H](C)[C@@H](O)[C@]1(C)O [ROXITHROMYCIN],276.1,–
C[C@@H]1O[C@@H](OC[C@H]2OC(Oc3c(-c4ccc(O)c(O)c4)oc4cc(O)cc(O)c4c3=O)[C@H](O)[C@@H](O)[C@@H]2O)[C@H](O)[C@H](O)[C@H]1O (some centres not stated) [RUTOSIDE  (rutin)],230.7,–
COc1ccc2c(c1O)-c1c(OC)c(OC)cc3c1[C@H](C2)N(C)CC3 [S-ISOCORYDINE (+)],181.9,–
C=CCc1ccc2c(c1)OCO2 [SAFROLE],138.6,–
O=C(Nc1ccccc1)c1ccccc1O [SALICYLANILIDE],143.9,–
CC1=C2[C@H]3OC(=O)[C@@H](C)[C@@H]3CC[C@@]2(C)C=CC1=O [SANTONIN],154.9,–
COc1ccc2c(c1)OC/C(=C\c1ccc(OC)c(O)c1)C2=O [SAPPANONE A DIMETHYL ETHER],170.3,–
COc1cc2ccc(=O)oc2cc1O [SCOPOLETIN],133.6,–
CCC(C)(C)C(=O)O[C@H]1C[C@@H](C)C=C2C=C[C@H](C)[C@H](CC[C@@H]3C[C@@H](O)CC(=O)O3)[C@H]21 [SIMVASTATIN],–,199.6
CC(=O)O[C@H]1CC[C@@]2(C)[C@H](CC[C@@H]3[C@@H]2CC[C@]2(C)[C@@H]4[C@H](C[C@@H]32)O[C@]2(CC[C@@H](C)CO2)[C@H]4C)C1 [SMILAGENIN ACETATE],222.1,–
CC1=CC(=O)[C@H]2C(C)(C)CCC[C@]2(C)[C@@]1(O)CCc1ccoc1 [SOLIDAGENONE],–,170.6
COc1cc2ccc(=O)oc2c2ccoc12 [SPHONDIN],139.9,–
O=C(CCCN1CCC2(CC1)C(=O)NCN2c1ccccc1)c1ccc(F)cc1 [SPIPERONE],193.8,–
"CC[C@H](/C=C/[C@@H](C)[C@H]1CC[C@H]2[C@@H]3CCC4=CC(=O)CC[C@]4(C)[C@H]3CC[C@]12C)C(C)C [STIGMASTA-4,22-DIEN-3-ONE]",218.5,–
Nc1ccc(S(=O)(=O)NC(=O)c2ccccc2)cc1 [SULFABENZAMIDE],158.2,–
Nc1ccc(S(=O)(=O)Nc2ccc(Cl)nn2)cc1 [SULFACHLORPYRIDAZINE],158.2,–
COc1cc(NS(=O)(=O)c2ccc(N)cc2)nc(OC)n1 [SULFADIMETHOXINE],167.7,–
Cc1ccnc(NS(=O)(=O)c2ccc(N)cc2)n1 [SULFAMERAZINE],156.3,–

Structure (SMILES),collision cross section (N2) ([M+H]+) [Å²],collision cross section (N2) ([M+H-H2O]+) [Å²]
Cc1nnc(NS(=O)(=O)c2ccc(N)cc2)s1 [SULFAMETHIZOLE],155.2,–
Cc1cc(NS(=O)(=O)c2ccc(N)cc2)no1 [SULFAMETHOXAZOLE],151.4,–
COc1ccc(NS(=O)(=O)c2ccc(N)cc2)nn1 [SULFAMETHOXYPYRIDAZINE],159.4,–
COc1cc(NS(=O)(=O)c2ccc(N)cc2)ncn1 [SULFAMONOMETHOXINE],159.5,–
Nc1ccc(S(=O)(=O)Nc2ccccn2)cc1 [SULFAPYRIDINE],151.6,–
O=C(O)C1=C/C(=N/Nc2ccc(S(=O)(=O)Nc3ccccn3)cc2)C=CC1=O [SULFASALAZINE],200.4,–
CC(=O)N(c1onc(C)c1C)S(=O)(=O)c1ccc(N)cc1 [SULFISOXAZOLE ACETYL],161.2,–
CC1=C(CC(=O)O)c2cc(F)ccc2/C1=C\c1ccc(S(C)=O)cc1 (configuration not stated) [SULINDAC],191.6,–
COc1cc(S(C)=O)ccc1-c1nc2ncccc2[nH]1 (configuration not stated) [SULMAZOLE],166.4,–
CC(C(=O)O)c1ccc(C(=O)c2cccs2)cc1 (configuration not stated) [SUPROFEN],157.2,–
CCCCC1(COC(=O)CCC(=O)O)C(=O)N(c2ccccc2)N(c2ccccc2)C1=O [SUXIBUZONE],199.3,–
Cc1coc2c1C(=O)C(=O)c1c-2ccc2c1CCCC2(C)C [TANSHINONE IIA],164,–
O=C(O)C(O)C(O)C(=O)O (configuration not stated) [TARTARIC ACID],124.4,–
CC[C@H]1OC(=O)[C@H](C)C(=O)[C@H](C)[C@@H](O[C@@H]2O[C@H](C)C[C@H](N(C)C)[C@H]2O)[C@](C)(OC)C[C@@H](C)C(=O)[C@H](C)[C@H]2N(CCCCn3cnc(-c4cccnc4)c3)C(=O)O[C@]12C [TELITHROMYCIN],269.7,–
CC(C)(C)c1ccc(C(O)CCCN2CCC(C(O)(c3ccccc3)c3ccccc3)CC2)cc1 (configuration not stated) [TERFENADINE],226.8,–
CCC(=O)O[C@H]1CC[C@H]2[C@@H]3CCC4=CC(=O)CC[C@]4(C)[C@H]3CC[C@]12C [TESTOSTERONE PROPIONATE],188.2,–
COc1ccc2cc1Oc1ccc(cc1)C[C@H]1c3cc(c(OC)cc3CCN1C)Oc1c(OC)c(OC)cc3c1[C@H](C2)N(C)CC3 [TETRANDRINE],245.3,–
O=C(O[C@@H]1Cc2c(O)cc(O)cc2O[C@@H]1c1cc(=O)c(O)c2c(O)c(O)cc([C@H]3Oc4cc(O)cc(O)c4C[C@H]3O)c2c1)c1cc(O)c(O)c(O)c1 [THEAFLAVIN MONOGALLATES],245.7,–
O=c1cc([C@H]2Oc3cc(O)cc(O)c3C[C@H]2O)cc2c([C@H]3Oc4cc(O)cc(O)c4C[C@H]3O)cc(O)c(O)c2c1O [THEAFLAVIN],219.8,–
Nc1nc(=S)c2[nH]cnc2[nH]1 [THIOGUANINE],129.7,–
Nc1nc(=S)c2ncn([C@@H]3O[C@H](CO)[C@@H](O)[C@H]3O)c2[nH]1 [THIOGUANOSINE],164,–

Structure (SMILES),collision cross section (N2) ([M+H]+) [Å²],collision cross section (N2) ([M+H-H2O]+) [Å²]
O=c1oc2cc(O)ccc2s1 [TIOXOLONE],130.2,–
CC(=O)OCC(=O)[C@@]1(O)[C@H](OC(C)=O)C[C@H]2[C@@H]3CCC4=CC(=O)C=C[C@]4(C)[C@@]3(F)[C@@H](O)C[C@@]21C [TRIAMCINOLONE DIACETATE],209.5,–
CSc1nc2cc(Oc3cccc(Cl)c3Cl)c(Cl)cc2[nH]1 [TRICLABENDAZOLE],179.3,–
COc1cc2c(c(OC)c1OC)-c1ccc(O)c(=O)cc1[C@@H](N)CC2 [TRIMETHYLCOLCHICINIC ACID],181,–
Cc1cc2cc3c(C)cc(=O)oc3c(C)c2o1 [TRIOXSALEN],147.4,–
CC(C)c1ccc2c(c1O)CC[C@H]1C3=C(CC[C@]21C)C(=O)OC3 [TRIPTOPHENOLIDE],179.4,–
C[C@@H]1O[C@@H](OC[C@H]2O[C@@H](Oc3c(-c4ccc(OCCO)c(OCCO)c4)oc4cc(OCCO)cc(O)c4c3=O)[C@H](O)[C@@H](O)[C@@H]2O)[C@H](O)[C@H](O)[C@H]1O [TROXERUTIN],259,–
NCCc1c[nH]c2ccccc12 [TRYPTAMINE],–,124.4
COc1cc2c3cc1Oc1cc(ccc1O)C[C@@H]1c4c(cc(OC)c(O)c4Oc4ccc(cc4)C[C@@H]3N(C)CC2)CC[N+]1(C)C [TUBOCURARINE CHLORIDE],236,–
CC(C)[C@@H]1NC(=O)[C@H](C)OC(=O)[C@@H](C(C)C)NC(=O)[C@@H](C(C)C)OC(=O)[C@H](C(C)C)NC(=O)[C@H](C)OC(=O)[C@@H](C(C)C)NC(=O)[C@@H](C(C)C)OC(=O)[C@H](C(C)C)NC(=O)[C@H](C)OC(=O)[C@@H](C(C)C)NC(=O)[C@@H](C(C)C)OC1=O [VALINOMYCIN],327.4,–
CCCCC(=O)N(Cc1ccc(-c2ccccc2-c2nn[nH]n2)cc1)[C@H](C(=O)O)C(C)C [VALSARTAN],202,–
Nc1ncnc2c1ncn2[C@@H]1O[C@H](CO)[C@@H](O)[C@@H]1O [VIDARABINE],156.4,–
CC[C@]12CCCN3CCc4c(n(c5ccccc45)[C@@](O)(C(=O)OC)C1)[C@@H]32 [VINCAMINE],180.9,–
COc1cc(O)c(C(C)=O)c(OC)c1 [XANTHOXYLIN],135.9,–
CCCOc1ccccc1-c1nc2[nH][nH]nc-2c(=O)n1 [ZAPRINAST],159.2,–
CN(C)CCc1c[nH]c2ccc(C[C@H]3COC(=O)N3)cc12 [ZOLMITRIPTAN],159.7,–
CN1CCN(C(=O)OC2c3nccnc3C(=O)N2c2ccc(Cl)cn2)CC1 (configuration not stated) [ZOPICLONE],186.5,–
CC(=O)O[C@@H]1CC2C(C)(C)[C@H](O)CC[C@]2(C)C2CC[C@@]3(C)[C@H](c4ccoc4)OC(=O)C4OC43[C@@]21C (stereo partly drawn) [alpha-DIHYDROGEDUNOL],205.9,–
COc1c(O)cc2oc3cc(O)c(CC=C(C)C)c(O)c3c(=O)c2c1CC=C(C)C [alpha-MANGOSTIN],198.8,–
CC(=O)Oc1c(C)c(C)c2c(c1C)CCC(C)(CCCC(C)CCCC(C)CCCC(C)C)O2 (stereo not drawn) [alpha-TOCHOPHERYL ACETATE],230.2,–
